Measurements from ChEMBL document CHEMBL1138716, “Carbonic anhydrase inhibitors. Inhibition of the prokariotic beta and gamma-class enzymes from Archaea with sulfonamides” (Bioorg Med Chem Lett, 2004).

What was measured:
Carbonic anhydrase [1] = molecular target: T1, Carbonic anhydrase (Methanosarcina thermophila, UniProt P40881)
T1 sequence (P40881 whole entry): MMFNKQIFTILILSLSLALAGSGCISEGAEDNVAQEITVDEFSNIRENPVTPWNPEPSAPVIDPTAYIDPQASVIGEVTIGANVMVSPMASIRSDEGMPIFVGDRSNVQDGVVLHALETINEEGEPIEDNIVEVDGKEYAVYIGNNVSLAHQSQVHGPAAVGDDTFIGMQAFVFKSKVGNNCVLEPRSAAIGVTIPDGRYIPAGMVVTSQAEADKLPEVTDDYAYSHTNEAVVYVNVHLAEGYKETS

Carbonic anhydrase [2] = molecular target: T1, Carbonic anhydrase; remark: listed apart in the source
Carbonic anhydrase [3] = molecular target: T2, Carbonic anhydrase (Methanobacterium thermoautotrophicum, UniProt Q50565)
T2 sequence (Q50565 whole entry): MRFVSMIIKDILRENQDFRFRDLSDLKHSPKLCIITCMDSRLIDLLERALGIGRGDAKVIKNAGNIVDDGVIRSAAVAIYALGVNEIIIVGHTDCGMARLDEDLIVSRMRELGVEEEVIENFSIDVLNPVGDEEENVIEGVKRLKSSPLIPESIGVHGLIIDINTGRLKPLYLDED

Compound	Ki (Carbonic anhydrase [1])	Ki (Carbonic anhydrase [2])	Ki (Carbonic anhydrase [3])
Nc1ccc(S(=O)(=O)NCc2ccc(S(N)(=O)=O)cc2)cc1	6.36 µM	0.18 µM	52.4 µM
Nc1ccc(S(N)(=O)=O)cc1I	0.66 µM	0.28 µM	98 µM
Nc1cccc(S(N)(=O)=O)c1	1.24 µM	0.17 µM	14.3 µM
NCCc1ccc(S(N)(=O)=O)cc1			25.7 µM
Nc1ccc(S(N)(=O)=O)cc1Cl	0.74 µM	0.14 µM	
NNc1ccc(S(N)(=O)=O)cc1	0.22 µM	2.2 µM	127 µM
Nc1cc(C(F)(F)F)c(S(N)(=O)=O)cc1S(N)(=O)=O [2,4-DISULFAMYLTRIFLUOROMETHYLANILINE]			50 µM
CCOc1ccc2nc(S(N)(=O)=O)sc2c1 [ETHOXZOLAMIDE]	0.74 µM		
NCc1ccc(S(N)(=O)=O)cc1 [MAFENIDE]	8.5 µM	0.35 µM	28.5 µM
NS(N)(=O)=O [SULFAMIDE]	5.96 µM		440000 µM

More lines, in order of falling Ki (Carbonic anhydrase [1]), values ahead:

Ki (Carbonic anhydrase [1])	Ki (Carbonic anhydrase [2])	Ki (Carbonic anhydrase [3])	Compound
3.93 µM	0.25 µM	57.8 µM	Nc1ccc(S(N)(=O)=O)cc1 [SULFANILAMIDE]
3.36 µM	0.09 µM	103000 µM	NS(=O)(=O)O [SULFAMATE]
1.01 µM	0.14 µM	38.5 µM	Cc1ccc(-c2cc(C(F)(F)F)nn2-c2ccc(S(N)(=O)=O)cc2)cc1 [CELECOXIB]
0.42 µM	0.97 µM	53.4 µM	Nc1ccc(S(N)(=O)=O)cc1F
0.28 µM	1.72 µM	77 µM	Nc1ccc(S(N)(=O)=O)cc1Br
0.12 µM		23.5 µM	CC1(C)O[C@@H]2[C@@H](CO[C@@]3(COS(N)(=O)=O)OC(C)(C)O[C@@H]23)O1 [TOPIRAMATE]
